The values below come from patent publication US8846671B2, “Heterocyclic alkynyl benzene compounds and medical compositions and uses thereof” (Guangzhou Institute of Biomedicine and Health, Chinese …, priority 2010, dated 2014).

Data set [1] is described as follows: Pharmacokinetics and bioavailability in rats. As to conditions: SD rats; for bioavailability / BA(% Oral bioavailability): calculated according to AUC data, PO vs IV; for bioavailability: read-out: BA(% Oral bioavailability). It is filed as in vivo. The method, then:
Pharmacokinetics and bioavailability in rats. […] The blood samples were collected at the proper time points after administration, add heparin-anticoagulant, and the supernatants of the blood samples were collected (3000 rpm, 10 min) and stored at -20° C. for HPLC-MS analysis. After protein-precipitation procedure with acetonitrile, supernatants were collected after 3000 rpm, 10 min for analysis with HPLC-MS. The data were analyzed with software DAS2.0 to separately acquire the parameters of compartment models and non-compartment models. The bioavailability was calculated according to AUC data.

Data set [2] concerns K562 (human chronic myelogenous leukemia cell line). Briefly: tumor cell proliferation, MTT or CCK8 assay, 72 h incubation. Format: cell-based. The following applies: K562, 72 h, MTT or CCK8, nM, read-out: IC50 on tumor cell proliferation, K562. The method, then: (§1) The heterocyclic alkynyl benzene compounds at different concentrations (1×10^−10˜1×10^−5M) were incubated for 72 hours individually applied to 6 cell lines K562 (human CML cell line), MOLT-4 (human ALL cell line), U937 (human CML cell line), MEG-01 (human CML cell line), L78 (human lung cancer cell line), Ba/F3-T315I (mice Pro-B cells transformed with Bcr-AblT315I and STI57′-resistant cell line). After incubation for 72 hrs, cell proliferation was then determined by MTT assay or CCK8 assay, and 4 hr incubation is further conducted, the absorbance at 570 nm (CCK8, 450 nm, 650 nm) was measured using enzyme Microplate Reader. […] Based on the inhibition potency of the heterocyclic alkynyl benzene compounds on the cell proliferation, IC50 values were calculated and summarized in the Table 1 and Table 2 (The compounds used were synthesized by Examples 1-40, and the compounds are marked with Drug No. series in Table 1).

Data set [3] relates to MOLT-4 (Human acute lymphoblastic leukemia cell line). The data set is described as above. The following applies: MOLT-4, 72 h, MTT or CCK8, nM, read-out: IC50 on tumor cell proliferation, MOLT-4. It is filed as cell-based. The method, then: as §1
Data set [4] concerns K562R cells (imatinib-resistant cell line). The description is as above. Format: cell-based. As to conditions: Homo sapiens, K-562R, imatinib-resistant K562R, read-out: IC50 on tumor cell proliferation, K562R cells.
The target in data set [5] is BAF3-T315I cells (Ba/F3 cell line stably expressing BCR/ABL T315I) (Homo sapiens, UniProt P00519, T315I, cells depend on it). The data set is described as above. It is filed as cell-based, mice. As to conditions: Ba/F3 expressing BCR/ABL T315I, 72 h, Table 1; read-out: IC50 on tumor cell proliferation, BAF3-T315I cells. The method, then:
The heterocyclic alkynyl benzene compounds at different concentrations (1×10^−10˜1×10^−5M) were incubated for 72 hours individually applied to 6 cell lines K562 (human CML cell line), MOLT-4 (human ALL cell line), U937 (human CML cell line), MEG-01 (human CML cell line), L78 (human lung cancer cell line), Ba/F3-T315I (mice Pro-B cells transformed with Bcr-AblT315I and STI57′-resistant cell line). After incubation for 72 hrs, cell proliferation was then determined by MTT assay or CCK8 assay, and 4 hr incubation is further conducted, the absorbance at 570 nm (CCK8, 450 nm, 650 nm) was measured using enzyme Microplate Reader.

Setting [6] is: both sexes, Sprague-Dawley, rat, plasma, iv, 10 mg/kg, IV 10 mg/kg.
Where [7] appears, read: both sexes, Sprague-Dawley, rat, plasma, po, 20 mg/kg, PO 20 mg/kg.
[8] abbreviates: both sexes, Sprague-Dawley, rat, plasma, po.
Where [9] appears, read: both sexes, Sprague-Dawley, rat, plasma, iv, 5 mg/kg, IV 5 mg/kg.
[10] abbreviates: both sexes, Sprague-Dawley, rat, plasma, iv, 5 mg/kg, IV 5 mg/kg, read-out: Cmax.
[11] abbreviates: both sexes, Sprague-Dawley, rat, plasma, iv, 5 mg/kg, IV 5 mg/kg, read-out: Tmax.
Where [12] appears, read: both sexes, Sprague-Dawley, rat, plasma, po, 25 mg/kg, PO 25 mg/kg.
The mark [13] stands for this setting: both sexes, Sprague-Dawley, rat, plasma, po, 25 mg/kg, PO 25 mg/kg, read-out: Cmax.
The mark [14] stands for this setting: both sexes, Sprague-Dawley, rat, plasma, po, 25 mg/kg, PO 25 mg/kg, read-out: Tmax.
Setting [15] is: both sexes, Sprague-Dawley, rat, plasma, iv, 25 mg/kg, IV 25 mg/kg.
[16] abbreviates: both sexes, Sprague-Dawley, rat, plasma, po, 5 mg/kg, PO 5 mg/kg.
The mark [17] stands for this setting: IV 5 mg/kg, dihydrochloride, 5 mg/kg.
[18] abbreviates: PO 25 mg/kg, dihydrochloride, 25 mg/kg.
Where [19] appears, read: both sexes, Sprague-Dawley, rat, plasma, iv, 2.5 mg/kg, IV 2.5 mg/kg.

Counter-ions that a name gives are not always drawn. Like-named read-outs stand apart in the source and are kept apart here.

Regarding `Cc1cn(-c2cc(NC(=O)c3ccc(C)c(C#Cc4cnc(NC(C)C)nc4)c3)cc(C(F)(F)F)c2)cn1` [D752 mesylate salt, 3-(2-(2-(isopropylamino)pyrimidin-5-yl)ethynyl)-4-methyl-N-(3-(4-methyl-1H-imidazol-1-yl)-5-(trifluoromethyl)phenyl)benzamide], the figures for the area under the curve AUC(0-inf) in data set [1] (setting [6]) and in data set [1] (setting [7]) were 305000 ng·h/mL and 70400 ng·h/mL, respectively. The half-life is 43.9 h in data set [1] (setting [6]) and 7.55 h in data set [1] (setting [7]). The Cmax in data set [1] (both sexes, Sprague-Dawley, rat, plasma, iv, 10 mg/kg, IV 10 mg/kg, read-out: Cmax) turned out to be 19600 ng/mL; in data set [1] (both sexes, Sprague-Dawley, rat, plasma, po, 20 mg/kg, PO 20 mg/kg, read-out: Cmax), 1900 ng/mL. The Tmax in data set [1] (both sexes, Sprague-Dawley, rat, plasma, iv, 10 mg/kg, IV 10 mg/kg, read-out: Tmax) was 0.033 h; in data set [1] (both sexes, Sprague-Dawley, rat, plasma, po, 20 mg/kg, PO 20 mg/kg, read-out: Tmax), 20 h. In addition, the bioavailability in data set [1] (setting [8]) is 11.5%.
Turning to `Cc1ncn(-c2cc(NC(=O)c3ccc(C)c(C#Cc4cnc5[nH]ncc5c4)c3)cc(C(F)(F)F)c2)n1` [D835, 3-(2-(1H-pyrazolo[3,4-b]pyridin-5-yl)ethynyl)-4-methyl-N-(3-(3-methyl-1H-1,2,4-triazol-1-yl)-5-(trifluoromethyl)phenyl)benzamide], the IC50 in data set [2] was 0.402 nM; in data set [3], greater than 100 nM; in data set [4], 26 nM. Moreover, the GI50 in data set [5] was 8.58 nM.
As for `Cc1ncn(-c2cc(NC(=O)c3ccc(C)c(C#Cc4cnc5[nH]ncc5c4)c3)cc(C(F)(F)F)c2)n1` [D835 hydrochloride salt, 3-(2-(1H-pyrazolo[3,4-b]pyridin-5-yl)ethynyl)-4-methyl-N-(3-(3-methyl-1H-1,2,4-triazol-1-yl)-5-(trifluoromethyl)phenyl)benzamide], the total exposure AUC(0-inf) in data set [1] (setting [9]) came to 8540 ng·h/mL; in data set [1] (setting [12]) it was 3470 ng·h/mL. Besides, the half-life in data set [1] (setting [9]) was 16.9 h; in data set [1] (setting [12]), 8.81 h. For the same molecule, the values for the Cmax in data set [1] (setting [10]) and in data set [1] (setting [13]) were 976 ng/mL and 233 ng/mL, respectively. Also, the Tmax in data set [1] (setting [11]) is 0.033 h; in data set [1] (setting [14]) it was 4 h. Moreover, the bioavailability in data set [1] (setting [8]) is 8.1%.
As to `Cc1ccc(C(=O)Nc2cc(-n3ccnc3)cc(C(F)(F)F)c2)cc1C#Cc1cnc2[nH]ncc2c1` [D831 mesylate salt, N-(3-(1H-imidazol-1-yl)-5-(trifluoromethyl)phenyl)-3-(2-(1H-pyrazolo[3,4-b]pyridin-5-yl)ethynyl)-4-methylbenzamide], the values for the AUC(0-inf) in data set [1] (setting [9]) and in data set [1] (setting [12]) were 107000 ng·h/mL and 73900 ng·h/mL, respectively. The half-life in data set [1] (setting [9]) was 5.24 h; in data set [1] (setting [12]) it was 4.66 h. The Cmax in data set [1] (setting [10]) came to 64200 ng/mL; in data set [1] (setting [13]) it was 9520 ng/mL. Further, the Tmax in data set [1] (setting [11]) came out at 0.033 h; in data set [1] (setting [14]) it was 2.25 h. Further, the bioavailability in data set [1] (setting [8]) is 13.8%.
As to `CNc1ncc(C#Cc2cc(C(=O)Nc3cc(-n4cnc(C)c4)cc(C(F)(F)F)c3)ccc2C)cn1` [D800 hydrochloride salt, 4-methyl-N-(3-(4-methyl-1H-imidazol-1-yl)-5-(trifluoromethyl)phenyl)-3-(2-(2-(methylamino)pyrimidin-5-yl)ethynyl)benzamide], the “BA(% Oral bioavailability)” value in data set [1] was 27.1%. The figures for the AUC(0-inf) in data set [1] (setting [15]) and in data set [1] (setting [16]) were 48600 ng·h/mL and 35800 ng·h/mL, respectively. Also, the half-life in data set [1] (setting [15]) was 7.8 h; in data set [1] (setting [16]), 7.5 h. Moreover, the Cmax in data set [1] (both sexes, Sprague-Dawley, rat, plasma, iv, 25 mg/kg, IV 25 mg/kg, read-out: Cmax) came to 3090 ng/mL; in data set [1] (both sexes, Sprague-Dawley, rat, plasma, po, 5 mg/kg, PO 5 mg/kg, read-out: Cmax) it was 11000 ng/mL. Also, the Tmax was 2 h in data set [1] (both sexes, Sprague-Dawley, rat, plasma, iv, 25 mg/kg, IV 25 mg/kg, read-out: Tmax) and 0.033 h in data set [1] (both sexes, Sprague-Dawley, rat, plasma, po, 5 mg/kg, PO 5 mg/kg, read-out: Tmax).
Turning to `Cc1ccc(C(=O)Nc2ccc(CN3CCN(C)CC3)c(C(F)(F)F)c2)cc1C#Cc1cnc2[nH]ncc2c1` [D824 hydrochloride salt, 3-(2-(1H-pyrazolo[3,4-b]pyridin-5-yl)ethynyl)-4-methyl-N-(4-((4-methylpiperazin-1-yl)methyl)-3-(trifluoromethyl)phenyl)benzamide dihydrochloride], in data set [1] (setting [17]), the “AUC(0-∞)” value came to 2922.411 ng·h/mL, the Cmax turned out to be 1375.625 ng/mL, the T1/2 is 5.557 h and the time to peak (Tmax) turned out to be 0.067 h. In addition, in data set [1] (setting [18]), the “AUC(0-∞)” value was 7108.253 ng·h/mL, the peak concentration (Cmax) worked out at 390.5 ng/mL and the T1/2 came to 10.55 h. Further, the “BA(% Oral bioavailability)” value in data set [1] (dihydrochloride) is on record as 48.7%. For the same molecule, the Tmax in data set [1] (setting [14]) is 6 h.
On to `CCNc1ncc(C#Cc2cc(C(=O)Nc3cc(-n4cnc(C)c4)cc(C(F)(F)F)c3)ccc2C)cn1` [D755 hydrochloride salt, 3-(2-(2-(ethylamino)pyrimidin-5-yl)ethynyl)-4-methyl-N-(3-(4-methyl-1H-imidazol-1-yl)-5-(trifluoromethyl)phenyl)benzamide], for which the AUC(0-inf) in data set [1] (setting [19]) came out at 3740 ng·h/mL; in data set [1] (setting [12]), 23700 ng·h/mL. In addition, the half-life in data set [1] (setting [19]) is 26.2 h; in data set [1] (setting [12]), 8.3 h. Moreover, the Cmax worked out at 510 ng/mL in data set [1] (both sexes, Sprague-Dawley, rat, plasma, iv, 2.5 mg/kg, IV 2.5 mg/kg, read-out: Cmax) and 1260 ng/mL in data set [1] (setting [13]). The Tmax in data set [1] (both sexes, Sprague-Dawley, rat, plasma, iv, 2.5 mg/kg, IV 2.5 mg/kg, read-out: Tmax) worked out at 0.033 h; in data set [1] (setting [14]) it was 6.25 h. Also, the bioavailability in data set [1] (setting [8]) was 63.3%.
Take `Cc1cn(-c2cc(NC(=O)c3ccc(C)c(C#Cc4cnc5[nH]ncc5c4)c3)cc(C(F)(F)F)c2)cn1` [D767 hydrochloride salt, 3-(2-(1H-pyrazolo[3,4-b]pyridin-5-yl)ethynyl)-4-methyl-N-(3-(4-methyl-1H-imidazol-1-yl)-5-(trifluoromethyl)phenyl)benzamide]: the “AUC(0-∞)” value in data set [1] (PO 25 mg/kg, 25 mg/kg) worked out at 62208 ng·h/mL. The Tmax came to 7.75 h in data set [1] (PO 25 mg/kg, 25 mg/kg) and 0.033 h in data set [1] (setting [11]). Besides, the “BA(% Oral bioavailability)” value in data set [1] was 19%. This molecule also had an AUC(0-inf) in data set [1] (setting [9]) of 65500 ng·h/mL. The half-life was 5.6 h in data set [1] (setting [9]) and 7.18 h in data set [1] (setting [12]). Moreover, the Cmax in data set [1] (setting [10]) was 15300 ng/mL; in data set [1] (setting [13]), 3620 ng/mL.
`Cc1ccc(C(=O)Nc2ccc(CN3CCN(C)CC3)c(C(F)(F)F)c2)cc1C#Cc1cnc(NC2CC2)nc1` [D825 mesylate salt, 3-(2-(2-(cyclopropylamino)pyrimidin-5-yl)ethynyl)-4-methyl-N-(4-((4-methylpiperazin-1-yl)methyl)-3-(trifluoromethyl)phenyl)benzamide trimesylate]: the area under the curve AUC(0-inf) stood at 11800 ng·h/mL in data set [1] (setting [9]) and 34600 ng·h/mL in data set [1] (setting [12]). In addition, the half-life was 11.7 h in data set [1] (setting [9]) and 11.5 h in data set [1] (setting [12]). The Cmax came out at 2330 ng/mL in data set [1] (setting [10]) and 1700 ng/mL in data set [1] (setting [13]). In addition, the Tmax in data set [1] (setting [11]) was found to be 0.033 h; in data set [1] (setting [14]), 4.75 h. In data set [1] (setting [8]), the bioavailability is 58.5%.
